Results on one compound are retold here after publication PMC6986443, “T‐495, a novel low cooperative M1 receptor positive allosteric modulator, improves memory deficits associated with cholinergic dysfunction and is characterized by low gastrointestinal side effect risk” (Pharmacology Research & Perspectives, 2020).

Common to all, as to assay: Selectivity panel
Assay type in all cases: biochemical

Assay [1] deals with Catechol-O-Methyl Transferase (COMT). The text has this:
(§1) The selectivity of T‐495 at 10 μmol/L against a panel of 106 targets, including receptors, enzymes, ion channels, and transporters, was characterized (Eurofins Panlabs Taiwan Ltd., Taipei, Taiwan).

Another assay deals with Protein kinase A (PKA).
Description: as §1

The target in the next assay is T1, Peptidase, factor Xa (Homo sapiens, UniProt P00742).
T1 construct: purchased Eurofins Panlabs Taiwan Ltd
T1 sequence (P00742 235-488 limits assumed): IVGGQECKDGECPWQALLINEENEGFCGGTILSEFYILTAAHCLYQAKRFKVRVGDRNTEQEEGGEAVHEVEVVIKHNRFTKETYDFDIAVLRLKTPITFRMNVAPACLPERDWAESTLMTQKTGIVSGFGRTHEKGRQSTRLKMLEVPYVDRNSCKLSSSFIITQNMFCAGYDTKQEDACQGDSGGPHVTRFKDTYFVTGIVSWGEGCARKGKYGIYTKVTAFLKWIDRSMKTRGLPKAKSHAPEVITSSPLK
T1 sequence (P00742 41-179 partner limits assumed): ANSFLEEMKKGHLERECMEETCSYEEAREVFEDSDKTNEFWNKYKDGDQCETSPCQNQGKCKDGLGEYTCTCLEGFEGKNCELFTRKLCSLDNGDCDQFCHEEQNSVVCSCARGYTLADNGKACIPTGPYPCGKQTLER
Description: as §1

The target of assay [2] is T2, Matrix metalloproteinase-7 (MMP-7) (Homo sapiens, UniProt P09237).
T2 construct: purchased Eurofins Panlabs Taiwan Ltd
T2 sequence (P09237 95-267): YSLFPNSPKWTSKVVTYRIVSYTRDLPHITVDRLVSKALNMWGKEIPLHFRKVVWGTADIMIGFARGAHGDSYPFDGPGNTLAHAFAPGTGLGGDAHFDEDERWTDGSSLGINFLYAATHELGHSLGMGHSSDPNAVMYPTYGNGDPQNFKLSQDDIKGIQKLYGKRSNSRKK
Description: as §1

In assay [3] the target is T3, Nitric oxide synthase, neuronal (nNOS) (Rattus norvegicus, UniProt P29476).
T3 construct: purchased Eurofins Panlabs Taiwan Ltd
Description: as §1

The target of a further assay is T4, Cyclooxygenase-2 (COX-2) (Homo sapiens, UniProt P35354).
T4 construct: purchased Eurofins Panlabs Taiwan Ltd
Description: as §1

Assay [4] addresses T5, Matrix metalloproteinase-1 (MMP-1) (Homo sapiens, UniProt P03956).
T5 construct: purchased Eurofins Panlabs Taiwan Ltd
Description: as §1

The test system of another assay is Phosphodiesterase PDE3.
Description: as §1

For the next assay, the target named is T6, Phosphodiesterase PDE4D2 (Homo sapiens, UniProt Q08499).
T6 construct: purchased Eurofins Panlabs Taiwan Ltd
T6 sequence (Q08499 303-809 limits assumed): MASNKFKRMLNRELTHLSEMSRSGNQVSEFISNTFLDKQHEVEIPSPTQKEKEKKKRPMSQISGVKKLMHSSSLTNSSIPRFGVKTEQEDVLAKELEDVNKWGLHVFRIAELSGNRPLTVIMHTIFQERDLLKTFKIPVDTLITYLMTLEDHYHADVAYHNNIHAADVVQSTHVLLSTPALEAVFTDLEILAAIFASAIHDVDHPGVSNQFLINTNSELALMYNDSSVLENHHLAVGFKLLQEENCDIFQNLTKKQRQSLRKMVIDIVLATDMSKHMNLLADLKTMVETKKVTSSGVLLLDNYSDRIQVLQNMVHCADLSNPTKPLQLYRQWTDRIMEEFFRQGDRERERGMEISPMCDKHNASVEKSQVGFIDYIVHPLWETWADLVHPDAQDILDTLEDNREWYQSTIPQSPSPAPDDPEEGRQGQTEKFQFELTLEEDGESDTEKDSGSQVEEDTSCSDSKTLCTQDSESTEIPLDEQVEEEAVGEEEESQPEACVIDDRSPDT
Description: as §1

The test system of another assay is Steroid 5α-reductase.
Description: as §1

For another assay, the target named is T7, Phosphodiesterase PDE5 (Homo sapiens, UniProt O76074).
T7 construct: purchased Eurofins Panlabs Taiwan Ltd
Description: as §1

The next assay addresses T8, Phosphodiesterase PDE6 (Bos taurus, UniProt P11541+P23439).
T8 construct: purchased Eurofins Panlabs Taiwan Ltd
Description: as §1

A further assay deals with ATPase, Na+/K+, Heart.
Description: as §1

The target of assay [5] is T9, Protein tyrosine kinase, EGF receptor (Homo sapiens, UniProt P00533).
T9 construct: purchased Eurofins Panlabs Taiwan Ltd
T9 sequence (P00533 25-1210): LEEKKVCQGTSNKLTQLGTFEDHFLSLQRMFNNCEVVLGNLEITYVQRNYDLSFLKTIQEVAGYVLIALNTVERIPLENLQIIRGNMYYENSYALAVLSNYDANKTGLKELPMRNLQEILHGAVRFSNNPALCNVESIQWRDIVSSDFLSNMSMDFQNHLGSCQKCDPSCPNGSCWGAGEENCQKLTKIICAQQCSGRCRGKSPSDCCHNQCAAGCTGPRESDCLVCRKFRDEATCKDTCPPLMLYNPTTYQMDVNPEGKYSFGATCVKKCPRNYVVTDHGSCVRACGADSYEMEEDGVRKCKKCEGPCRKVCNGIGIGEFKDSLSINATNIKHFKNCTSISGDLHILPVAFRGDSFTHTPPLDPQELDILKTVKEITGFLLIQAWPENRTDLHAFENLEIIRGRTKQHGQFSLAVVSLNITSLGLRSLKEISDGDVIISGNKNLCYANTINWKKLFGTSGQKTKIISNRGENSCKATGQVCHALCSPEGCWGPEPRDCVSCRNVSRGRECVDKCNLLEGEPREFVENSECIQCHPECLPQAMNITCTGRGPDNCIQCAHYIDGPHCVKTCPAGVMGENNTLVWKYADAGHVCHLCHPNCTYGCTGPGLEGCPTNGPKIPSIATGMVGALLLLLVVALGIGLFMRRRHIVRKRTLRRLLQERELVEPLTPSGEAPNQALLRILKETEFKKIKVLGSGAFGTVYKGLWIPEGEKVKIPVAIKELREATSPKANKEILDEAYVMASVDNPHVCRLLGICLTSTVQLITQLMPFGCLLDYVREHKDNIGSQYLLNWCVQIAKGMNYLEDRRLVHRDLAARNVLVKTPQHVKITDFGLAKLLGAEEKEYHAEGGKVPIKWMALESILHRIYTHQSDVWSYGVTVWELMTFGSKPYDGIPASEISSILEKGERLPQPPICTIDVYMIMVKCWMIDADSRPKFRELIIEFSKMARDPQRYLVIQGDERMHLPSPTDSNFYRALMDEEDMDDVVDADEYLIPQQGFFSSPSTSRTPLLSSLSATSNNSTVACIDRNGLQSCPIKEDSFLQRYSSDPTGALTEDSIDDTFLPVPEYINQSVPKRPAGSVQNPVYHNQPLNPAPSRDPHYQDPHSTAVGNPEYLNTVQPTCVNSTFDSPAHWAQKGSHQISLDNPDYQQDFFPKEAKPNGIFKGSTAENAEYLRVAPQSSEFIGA
Description: as §1

For the next assay, the system named is Phosphodiesterase PDE4.
Description: as §1

Assay [6] addresses T10, Monoamine oxidase B (MAO-B) (Homo sapiens, UniProt P27338).
T10 construct: purchased Eurofins Panlabs Taiwan Ltd
Description: as §1

The target of assay [7] is T11, Nitric oxide synthase, inducible (iNOS) (Mus musculus, UniProt P29477).
T11 construct: purchased Eurofins Panlabs Taiwan Ltd
Description: as §1

T5 sequence (P03956 100-469): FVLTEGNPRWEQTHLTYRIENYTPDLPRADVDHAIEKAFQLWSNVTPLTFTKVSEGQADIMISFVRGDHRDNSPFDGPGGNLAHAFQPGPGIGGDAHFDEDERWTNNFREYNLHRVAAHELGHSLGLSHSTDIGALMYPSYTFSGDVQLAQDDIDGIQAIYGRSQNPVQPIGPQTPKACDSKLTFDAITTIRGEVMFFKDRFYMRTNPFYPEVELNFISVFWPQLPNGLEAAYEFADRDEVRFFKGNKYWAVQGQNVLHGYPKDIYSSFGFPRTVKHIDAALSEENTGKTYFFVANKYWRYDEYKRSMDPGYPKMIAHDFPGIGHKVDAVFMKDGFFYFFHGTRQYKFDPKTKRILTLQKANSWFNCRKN
T10 sequence (P27338 whole entry): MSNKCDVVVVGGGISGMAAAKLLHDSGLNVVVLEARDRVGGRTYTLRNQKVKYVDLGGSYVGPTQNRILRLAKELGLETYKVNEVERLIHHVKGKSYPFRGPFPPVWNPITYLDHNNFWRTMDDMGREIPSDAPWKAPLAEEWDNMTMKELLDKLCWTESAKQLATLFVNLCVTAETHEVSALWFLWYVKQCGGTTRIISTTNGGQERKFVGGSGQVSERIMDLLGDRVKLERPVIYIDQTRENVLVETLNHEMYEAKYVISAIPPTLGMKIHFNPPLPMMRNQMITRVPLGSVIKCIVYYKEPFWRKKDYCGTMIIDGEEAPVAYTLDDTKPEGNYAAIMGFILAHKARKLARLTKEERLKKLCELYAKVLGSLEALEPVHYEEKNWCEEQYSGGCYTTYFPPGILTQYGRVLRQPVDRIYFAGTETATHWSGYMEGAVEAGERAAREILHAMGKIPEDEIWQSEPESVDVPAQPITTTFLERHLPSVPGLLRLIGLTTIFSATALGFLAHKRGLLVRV
T8 sequence (P11541 whole entry): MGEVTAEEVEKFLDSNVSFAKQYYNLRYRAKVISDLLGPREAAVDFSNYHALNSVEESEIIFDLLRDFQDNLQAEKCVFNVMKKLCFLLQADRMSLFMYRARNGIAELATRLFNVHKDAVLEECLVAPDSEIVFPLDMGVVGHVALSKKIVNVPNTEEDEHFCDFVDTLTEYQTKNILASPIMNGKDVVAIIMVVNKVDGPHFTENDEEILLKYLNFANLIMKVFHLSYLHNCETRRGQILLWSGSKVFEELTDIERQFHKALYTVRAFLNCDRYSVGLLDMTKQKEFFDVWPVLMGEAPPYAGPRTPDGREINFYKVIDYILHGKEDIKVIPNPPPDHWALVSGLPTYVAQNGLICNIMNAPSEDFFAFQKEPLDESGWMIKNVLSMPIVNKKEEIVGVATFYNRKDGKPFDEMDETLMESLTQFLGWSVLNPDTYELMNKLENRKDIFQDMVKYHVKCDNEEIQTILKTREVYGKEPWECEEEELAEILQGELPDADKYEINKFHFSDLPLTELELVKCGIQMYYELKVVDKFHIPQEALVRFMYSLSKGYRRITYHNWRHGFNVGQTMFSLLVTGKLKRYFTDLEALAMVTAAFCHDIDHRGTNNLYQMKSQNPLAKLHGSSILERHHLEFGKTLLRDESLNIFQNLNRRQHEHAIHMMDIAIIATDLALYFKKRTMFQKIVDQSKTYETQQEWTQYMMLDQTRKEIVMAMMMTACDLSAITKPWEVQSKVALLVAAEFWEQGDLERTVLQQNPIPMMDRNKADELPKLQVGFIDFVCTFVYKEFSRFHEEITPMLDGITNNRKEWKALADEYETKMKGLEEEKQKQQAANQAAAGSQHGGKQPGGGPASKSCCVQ
T8 sequence (P23439 whole entry): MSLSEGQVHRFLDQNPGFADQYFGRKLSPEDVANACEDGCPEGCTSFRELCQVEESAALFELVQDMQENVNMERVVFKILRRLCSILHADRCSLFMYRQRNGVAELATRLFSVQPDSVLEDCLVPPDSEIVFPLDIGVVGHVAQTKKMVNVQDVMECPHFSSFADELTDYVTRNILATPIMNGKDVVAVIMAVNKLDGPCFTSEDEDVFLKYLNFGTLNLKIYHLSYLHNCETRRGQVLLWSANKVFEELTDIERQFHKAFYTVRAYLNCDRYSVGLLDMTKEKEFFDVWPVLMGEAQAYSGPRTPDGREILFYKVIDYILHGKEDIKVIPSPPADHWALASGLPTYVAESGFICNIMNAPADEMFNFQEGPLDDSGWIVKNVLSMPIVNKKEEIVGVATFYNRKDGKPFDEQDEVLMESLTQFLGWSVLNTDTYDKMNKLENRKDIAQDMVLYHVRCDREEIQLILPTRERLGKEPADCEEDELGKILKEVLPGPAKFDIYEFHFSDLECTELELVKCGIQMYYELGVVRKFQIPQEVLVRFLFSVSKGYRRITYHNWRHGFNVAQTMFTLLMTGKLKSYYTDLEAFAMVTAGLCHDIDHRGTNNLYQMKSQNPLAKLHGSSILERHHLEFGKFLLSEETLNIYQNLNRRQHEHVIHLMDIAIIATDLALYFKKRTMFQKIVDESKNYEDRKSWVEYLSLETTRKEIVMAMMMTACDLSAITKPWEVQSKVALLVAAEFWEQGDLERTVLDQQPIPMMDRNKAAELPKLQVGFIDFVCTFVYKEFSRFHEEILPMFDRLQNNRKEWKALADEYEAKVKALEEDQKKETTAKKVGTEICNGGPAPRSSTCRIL

A word on the % inhibition: it is the change of the read-out against control, counted positive when it falls. As a reminder, the inhibition is the drop in the measured response relative to a control, in per cent. In the case of `Cc1c(Cc2ccc(Cl)nc2)cc2c(c1Cl)OCN([C@H]1CCC[C@@H]1O)C2=O` [T‐495, 8‐chloro‐6‐((6‐chloropyridin‐3‐yl)methyl)‐3‐((1S,2S)‐2‐hydroxycyclopentyl)‐7‐methyl‐2,3‐dihydro‐4H‐1,3‐benzoxazin‐4‐one], the “% inhibition at 10 μM” value in assay [1] is reported as 2%; in the assay on Protein kinase A (PKA) it was -4%; in the assay with Phosphodiesterase PDE3 it was 2%; in the assay with Steroid 5α-reductase, 2%; in the assay with ATPase, Na+/K+, Heart, 4%; in the assay on Phosphodiesterase PDE4, 22%. Moreover, the inhibition at 10 µM on Peptidase, factor Xa was -2%; in [2], 3%; in [3] it was 5%; against Cyclooxygenase-2 (COX-2), 31%; in [4], 5%; against Phosphodiesterase PDE4D2, 2%. Besides, the inhibition at 10 µM is 48% at Phosphodiesterase PDE5; 6% against Phosphodiesterase PDE6; 9% in [5]; 6% in assay [6]; 0% in assay [7].
